Experimental data reported in patent US6271242A, “Method for treating cancer using a tyrosine protein kinase inhibitor” (Bristol-Myers Squibb Co., priority 1992, dated 2001).
Entries after “also recorded” stand apart in the source; their conditions may differ.

Assays:
PC12 cells [1] = assay: NGF-induced neuronal differentiation (neurite outgrowth) of PC12 cells; assay type: cell-based; settings: Rattus norvegicus, PC-12, 72 h; 50 ng/ml NGF, three days; read-out: IC50, block of appearance of neuritic processes in PC12 cells exposed to NGF
PC12 cells [2] = assay: FGF-induced neurite formation of PC12 cells; assay type: cell-based, rat; settings: concentrations as high as 300 nM; 50 ng/ml acidic and basic FGFs, three days
PC12 cells [3] = assay: Proliferation of PC12 cells; assay type: cell-based, rat; settings: submicromolar concentrations; data not shown
gp140^trk = assay type: cell-based, rat; settings: 100 nM K252a, 100 ng/ml NGF, PC12 cells
PDGF receptor = assay: PDGF-induced tyrosine phosphorylation of PDGF receptor in NIH3T3 cells (Western blot); assay type: cell-based; settings: 100 nM K252a, 100 ng/ml PDGF
human EGF receptor = assay: EGF-induced tyrosine phosphorylation of EGF receptor in F19-91 cells (Western blot); assay type: cell-based; settings: 100 nM K252a, 100 ng/ml EGF
gp145^trkB = assay: BDNF-induced tyrosine phosphorylation of gp145^trkB in Z52-17 cells (Western blot); assay type: cell-based; settings: 100 nM K252a, 100 ng/ml BDNF
gp145^trkC = assay: NT-3-induced tyrosine phosphorylation of gp145^trkC in R4-31 cells (Western blot); assay type: cell-based; settings: 100 nM K252a, 100 ng/ml NT-3, R4-31 (RA-31) cells
[4] = tested on: NIH3T3 cells co-transfected with pDM69 (gp140^trk) and pLTRSNGF (NGF); assay: Focus formation of NIH3T3 cells co-transfected with gp140^trk and NGF plasmids; assay type: cell-based; settings: 100 nM K252a
[5] = tested on: NIH3T3 cells co-transfected with pFRK44 (gp145^trkB) and pLL42 (BDNF); assay: Focus formation of NIH3T3 cells co-transfected with gp145^trkB and BDNF plasmids; assay type: cell-based; settings: 100 nM K252a
[6] = tested on: NIH3T3 cells co-transfected with pFL20 (gp145^trkC) and pLL43 (NT-3); assay: Focus formation of NIH3T3 cells co-transfected with gp145^trkC and NT-3 plasmids; assay type: cell-based; settings: 100 nM K252a; pFL20 (gp145^trkC) + pLL43 (NT-3)
Z99-541 cells = assay: Reversion of transformed phenotype, gp140^trk + NGF transformed NIH3T3 cells; assay type: cell-based
Z82-432 cells = assay: Reversion of transformed phenotype, gp145^trkB + BDNF transformed NIH3T3 cells; assay type: cell-based
Z82-711 cells = assay: Reversion of transformed phenotype, gp145^trkC + NT-3 transformed NIH3T3 cells; assay type: cell-based
pp60^v-src [7] = assay: In vitro tyrosine protein kinase assay of pp60^v-src immunoprecipitates (C74-321 cells); assay type: biochemical; settings: concentrations as high as 10 μM
pp60^v-src [8] = assay: Tyrosine phosphorylation of pp60^v-src in C74-321 cells (Western blot); assay type: cell-based; settings: concentrations as high as 1 μM
106-632 cells = assay: Reversion of morphologic transformation, trk-transformed NIH3T3 cells; assay type: cell-based; settings: 100 nM K252a, as little as 36 hours
B38-941 cells = assay: Reversion of morphologic transformation, trk5-transformed NIH3T3 cells; assay type: cell-based; settings: 100 nM K252a, as little as 36 hours
[9] = Morphology and toxicity, v-src-transformed NIH3T3 cells; assay type: cell-based; settings: mouse, v-src transformed nih3t3 cells; v-src transformed cells, no signs of morphologic reversion; data not shown; read-out: concentration at which toxic effect appears
C74-321 cells = assay: as above; assay type: cell-based
[10] = Morphology and toxicity, v-fms-transformed NIH3T3 cells; assay type: cell-based; settings: mouse, v-fms transformed nih3t3 cells; v-fms transformed cells, no signs of morphologic reversion; data not shown; read-out: concentration at which toxic effect appears
C51-642 cells = assay: as above; assay type: cell-based
NIH3T3 cells = assay: Toxicity and growth of untransfected NIH3T3 and NIH3T3-derived cells

For `COC(=O)[C@@]1(O)C[C@H]2O[C@]1(C)n1c3ccccc3c3c4c(c5c6ccccc6n2c5c31)C(=O)NC4` (single isomer, unassigned) [K252a, (8R*,9S*,11S*)-(-)-9-hydroxy-9-methoxycarbonyl-8-methyl-2,3,9,10-tetrahydro-8,11-epoxy-1H,8H,11H-2,7b,11a-triazadibenzo(a,g) cycloocta(c,d,e)triinden-1-one], the IC50 (PC12 cells [1]) was about 40 nM, the “effect on induction of neurite formation by FGF” value (PC12 cells [2]) was “no detectable effect” and the “inhibitory effect on proliferation of PC12 cells” value (PC12 cells [3]) was “did not have a significant inhibitory effect”. For the same molecule, the “NGF-induced phosphorylation of gp140^trk on tyrosine residues” value (gp140^trk) was “completely abolished”, the “phosphorylation on tyrosine residues of the PDGF receptor” value (PDGF receptor) was “no effect” and the “phosphorylation on tyrosine residues of the EGF receptor” value (human EGF receptor) was “no effect”. The “phosphorylation on tyrosine residues of ligand-activated gp145^trkB” value (gp145^trkB) was “completely abolished”, the “phosphorylation on tyrosine residues of ligand-activated gp145^trkC” value (gp145^trkC) was “completely abolished” and the “Transforming Activity” value [4] was 0 Foci per 10^5 cells. The “Transforming Activity” value [5] was 0 Foci per 10^5 cells, the “Transforming Activity” value [6] was 0 Foci per 10^5 cells and the “reversion of transformed phenotype” value (Z99-541 cells; 30 nM K252a, data not shown) was “much more limited effect”. The “reversion of transformed phenotype” value (Z99-541 cells; 100 nM K252a, 2 to 4 days) was “completely reverted”, the “reversion of transformed phenotype” value (Z82-432 cells; 30 nM K252a, data not shown) was “much more limited effect” and the “reversion of transformed phenotype” value (Z82-432 cells; 100 nM K252a, 2 to 4 days) was “completely reverted”. The “reversion of transformed phenotype” value (Z82-711 cells; 30 nM K252a, data not shown) was “much more limited effect”, the “reversion of transformed phenotype” value (Z82-711 cells; 100 nM K252a, 2 to 4 days) was “completely reverted” and the “inhibitory effect on catalytic activity of pp60^v-src” value (pp60^v-src [7]) was “did not have any significant inhibitory effect”. For the same molecule, the “inhibitory effect on levels of tyrosine phosphorylation of pp60^v-src” value (pp60^v-src [8]) was “did not have any inhibitory effect”, the “reversion of transformed phenotype” value (106-632 cells) was “completely reverted” and the “reversion of transformed phenotype” value (B38-941 cells) was “completely reverted”. The MCC [9] was about 1000 nM, the “effect on morphology of v-src transformed cells” value (C74-321 cells) was “no effect” and the “effect on transformed phenotype of v-src cells” value (C74-321 cells; concentrations as high as 1 μM) was “no effect”. For the same molecule, the MCC [10] was about 1000 nM, the “effect on morphology of v-fms transformed cells” value (C51-642 cells) was “no effect” and the “effect on transformed phenotype of v-fms cells” value (C51-642 cells; concentrations as high as 1 μM) was “no effect”. The “effect on growth properties / proliferation rate of the cells” value (NIH3T3 cells; 300 nM or lower) was “not observed; also recorded: no significant effect”, the detectable toxic effects (NIH3T3 cells; concentrations as high as 300 nM, NIH3T3-derived cells) was “nor elicit any detectable toxic effects” and the toxicity to cells (NIH3T3 cells; micromolar concentrations, particularly untransfected NIH3T3 cells, data not shown) was “considerably toxic”.
